Measured values as given in BindingDB's records for doi:10.1158/2159-8290.CD-13-1010 (Fred Hutchinson Cancer Research Center, 2014).

Biological target: Transmembrane protease serine 2 (Homo sapiens, UniProt O15393)
Assay: titration assay
Source text: To identify inhibitors of TMPRSS2 that may be used directly in clinical studies or as lead compounds to develop targeted drugs, we screened several chemical libraries with active TMPRSS2 protease, the […] TMPRSS2 peptide substrate Boc-Gln-Ala-Arg-MCA, and compound concentrations of 5 μmol/L. We have used a similar approach to identify inhibitors of the hepsin protease.

Chain of Transmembrane protease serine 2 (O15393 1-255 limits assumed): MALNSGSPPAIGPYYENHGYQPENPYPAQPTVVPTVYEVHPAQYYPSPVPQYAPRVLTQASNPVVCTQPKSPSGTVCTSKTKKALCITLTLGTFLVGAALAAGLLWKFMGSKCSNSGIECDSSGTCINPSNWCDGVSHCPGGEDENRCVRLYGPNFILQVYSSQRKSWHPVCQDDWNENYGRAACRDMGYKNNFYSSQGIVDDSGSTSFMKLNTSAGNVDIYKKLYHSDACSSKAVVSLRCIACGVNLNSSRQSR
Chain of Transmembrane protease serine 2 (O15393 256-492 limits assumed): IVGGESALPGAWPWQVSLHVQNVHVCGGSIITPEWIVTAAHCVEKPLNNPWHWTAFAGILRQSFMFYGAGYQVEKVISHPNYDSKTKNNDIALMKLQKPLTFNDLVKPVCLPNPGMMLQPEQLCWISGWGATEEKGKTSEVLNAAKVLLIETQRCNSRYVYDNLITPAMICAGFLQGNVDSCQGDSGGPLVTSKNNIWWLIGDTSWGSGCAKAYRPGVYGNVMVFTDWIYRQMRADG

Row | Compound | IC50
1 | COC(=O)Cc1cc(=O)oc2cc(O)ccc12 | 1370 nM
2 | CCN1CCn2c3c(c4cc(Br)ccc42)CCCC31 (stereo not given) [4401-0077] | 2680 nM

Continued, values first:

Row | IC50 | Compound
3 | 930 nM | COC(=O)c1ccc(OC(=O)c2cccs2)cc1 [0591-5329]
4 | 2640 nM | CCn1c(-c2ccc(Cl)cc2)csc1=Nc1ccccc1 [8008-1235]
5 | 750 nM | CN(Cc1cc(Br)cc(Br)c1N)C1CCCCC1 [Bromhexine]
